Here are results for two molecules from patent US7258862B2, “Mushroom extracts having anticancer activity” (Gavish-Galilee Bio Aplications Ltd., priority 2004, dated 2007).

Entries after “also recorded” stand apart in the source; their conditions may differ.

Common to all, as to format: cell-based, human
Assay [1] concerns K562 cells. In words: Apostain ELISA assay (DNA condensation, apoptosis) in K562 cells. Conditions: 48 h; for Relative Apostain Value: K562, solvent-treated sample = 1. For orientation: In an ELISA, binding on a coated surface is turned into a signal by an enzyme label.
In another assay the test system is PARP. In words: PARP cleavage Western blot in K562 cells. Conditions: 500 μg/ml and 250 μg/ml, 48 hours, Western blot (FIGS. 2A-2B). A general note: Immunoblotting shows a protein as a band on a membrane.
The subject of a further assay is p210^Bcr-Abl. The assay is described as follows: Western blot of p210 Bcr-Abl expression in K562 cells. The following applies: extracts 500 μg/ml and 250 μg/ml, AG957 10 μM and 20 μM, 48 hours, Western blot (FIGS. 3A-3B).
Assay [2] has as its system K562 cells. In words: Erythroid differentiation: hemoglobin production in K562 cells.

In the case of `COC(=O)c1ccc(NCc2cc(O)ccc2O)cc1` [AG957], the “Relative Apostain Value” in the assay on K562 cells [1] (10 μM) was found to be 6.2; in the assay with K562 cells [1] (20 μM) it was 3.9. Further, in the assay with K562 cells [1] (extracts 250 and 500 μg/ml, AG957 10 μM), the “Induction of apoptosis / increase in DNA condensation in K562 cells (in words)” value is recorded as “significantly induced an increase in DNA condensation”. The “Cleavage of PARP in K562 cells (in words)” value in the assay on PARP was “significantly activates PARP cleavage; also recorded: significant cleavage of PARP”. The “Effect on p210^Bcr-Abl expression levels in K562 cells (in words)” value in the assay on p210^Bcr-Abl is “reduction in Bcr-Abl protein levels”.

For `CCCC(=O)O` [Butyric Acid, butyric acid], the “Relative Hemoglobin” value in the assay on K562 cells [2] (1 mM, day 5, K562, solvent-treated sample = 1.0) came to 9.4. The “Induction of hemoglobin production / erythroid differentiation in K562 cells (in words)” value with K562 cells [2] (day 5 post-treatment, versus DMSO-treated cells) was “active in inducing hemoglobin expression”.
